We go through eight compounds from US20110098304A1, “Small molecule inhibitors of PARP activity” (priority 2009, published 2011).

Each structure is given as a SMILES string.

The assay concerns the target T1, human PARD-1 (Poly (ADP-Ribose) Polymerase-1) (Homo sapiens, UniProt P09874).
T1 construct: purchased Trevigen Inc., Gaithersburg, Md
In words: Poly (ADP-Ribose) Polymerase-1 in vitro enzyme assay (Universal Colorimetric Assay Kit, Trevigen). The class given is biochemical. The note with it: letter codes; read-out: extent of inhibition of PARP activity (IC50, micromolar). The procedure: Poly (ADP-Ribose) Polymerase-1 (PARD-1) In Vitro Enzyme Assay: Compounds were screened for inhibitory activity against human PARD-1 in vitro using the Universal Colorimetric PARD Assay Kit (Trevigen Inc., Gaithersburg, Md.) as directed by the supplier. Compounds are assayed in duplicate in 0.5% DMSO final concentration, negative control is no enzyme, while positive control is DMSO vehicle alone. IC50 determinations are made using Microsoft Excel. For all cell assays, compounds are added to cells in 5% DMSO/PBS for a final concentration of 0.5% DMSO.

T1 sequence (P09874 whole entry): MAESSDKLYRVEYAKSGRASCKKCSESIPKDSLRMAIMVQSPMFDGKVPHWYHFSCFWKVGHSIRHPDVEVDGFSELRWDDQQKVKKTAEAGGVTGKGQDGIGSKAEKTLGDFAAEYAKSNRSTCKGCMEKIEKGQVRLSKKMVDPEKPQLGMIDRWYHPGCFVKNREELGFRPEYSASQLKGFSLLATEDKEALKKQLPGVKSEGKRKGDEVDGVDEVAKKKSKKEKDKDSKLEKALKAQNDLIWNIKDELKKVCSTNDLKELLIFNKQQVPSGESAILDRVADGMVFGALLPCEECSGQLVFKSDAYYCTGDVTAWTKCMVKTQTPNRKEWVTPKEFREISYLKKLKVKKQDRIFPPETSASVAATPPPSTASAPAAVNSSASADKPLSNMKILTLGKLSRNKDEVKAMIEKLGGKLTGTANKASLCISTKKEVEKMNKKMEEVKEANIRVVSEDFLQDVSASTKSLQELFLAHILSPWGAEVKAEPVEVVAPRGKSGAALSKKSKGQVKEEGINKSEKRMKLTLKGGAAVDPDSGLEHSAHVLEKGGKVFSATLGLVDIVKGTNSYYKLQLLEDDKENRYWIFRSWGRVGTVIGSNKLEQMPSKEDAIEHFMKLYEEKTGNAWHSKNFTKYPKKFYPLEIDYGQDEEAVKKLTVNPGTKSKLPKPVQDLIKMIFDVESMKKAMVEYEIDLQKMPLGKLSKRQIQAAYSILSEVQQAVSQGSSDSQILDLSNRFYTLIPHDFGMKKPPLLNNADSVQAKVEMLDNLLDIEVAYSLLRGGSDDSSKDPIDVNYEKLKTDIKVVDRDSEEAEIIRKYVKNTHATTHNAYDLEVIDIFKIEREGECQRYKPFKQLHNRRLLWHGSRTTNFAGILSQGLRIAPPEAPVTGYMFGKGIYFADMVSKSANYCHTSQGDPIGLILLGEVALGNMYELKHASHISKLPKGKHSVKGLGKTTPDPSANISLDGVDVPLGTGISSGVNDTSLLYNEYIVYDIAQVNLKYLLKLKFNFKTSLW

By IC50 is commonly meant the concentration needed to halve the response being measured. Turning to `N#CCCN1CCN(c2ccc(-c3n[nH]c(=O)c4ccccc34)cc2N)CC1` [3-(4-(2-amino-4-(4-oxo-3,4-dihydrophthalazin-1-yl)phenyl)piperazin-1-yl)propanenitrile], the IC50 lay in the range of 0.001 to 0.1 µM.

For the compound `CN1CCN(c2ccc(-c3n[nH]c(=O)c4ccccc34)cc2NC(=O)C2CCCCC2)CC1` [N-(2-(4-methylpiperazin-1-yl)-5-(4-oxo-3,4-dihydrophthalazin-1-yl)phenyl)cyclohexanecarboxamide], the IC50 was 0.1 to 1 µM.

In the case of `COCCN1CCN(c2ccc(-c3n[nH]c(=O)c4ccccc34)cc2N)CC1` [4-(3-amino-4-(4-(2-methoxyethyl)piperazin-1-yl)phenyl)phthalazin-1(2H)-one], the IC50 was 0.1 to 1 µM.

As to `CN1CCN(c2ccc(-c3n[nH]c(=O)c4ccccc34)cc2NC(=O)c2cccc(C#N)c2)CC1` [3-cyano-N-(2-(4-methylpiperazin-1-yl)-5-(4-oxo-3,4-dihydrophthalazin-1-yl)phenyl)benzamide], the half-maximal inhibitory concentration (IC50) is 0.1 to 1 µM.

Turning to `CN1CCN(c2ccc(-c3n[nH]c(=O)c4ccccc34)cc2NC(=O)c2ccco2)CC1` [N-(2-(4-methylpiperazin-1-yl)-5-(4-oxo-3,4-dihydrophthalazin-1-yl)phenyl)furan-2-carboxamide], the IC50 is 0.1 to 1 µM.

Consider `CN1CCN(c2ccc(-c3n[nH]c(=O)c4ccccc34)cc2NC(=O)NC2CCCC2)CC1` [1-cyclopentyl-3-(2-(4-methylpiperazin-1-yl)-5-(4-oxo-3,4-dihydrophthalazin-1-yl)phenyl)urea], for which the IC50 lay within 0.1 to 1 µM.

With `Nc1cc(-c2n[nH]c(=O)c3ccccc23)ccc1N1CCN(C2CCCC2)CC1` [4-(3-amino-4-(4-cyclopentylpiperazin-1-yl)phenyl)phthalazin-1(2H)-one], the half-inhibitory concentration (IC50) lay within 0.001 to 0.1 µM.

Regarding `CCNC(=O)Nc1cc(-c2n[nH]c(=O)c3ccccc23)ccc1N1CCN(C)CC1` [1-ethyl-3-(2-(4-methylpiperazin-1-yl)-5-(4-oxo-3,4-dihydrophthalazin-1-yl)phenyl)urea], the IC50 lay in the range of 1 to 5 µM.
